# According to ChEMBL document CHEMBL1140979, “Synthesis and antiamoebic activity of metronidazole thiosemicarbazone analogues” (Eur J Med Chem, 2008):
# Test system: Entamoeba histolytica
# Assay: Antiamoebic activity against Entamoeba histolytica HM1:IMSS after 72 hrs by microdilution method
# Assay type: functional, organism-based
row,IC50,SMILES
1,0.56 µM,Cc1ccc(NC(=S)N/N=C/c2ccc(/C=C/c3ncc([N+](=O)[O-])n3CCO)cc2)cc1
2,1.18 µM,O=[N+]([O-])c1cnc(/C=C/c2ccc(/C=N/NC(=S)N3CCCc4ccccc43)cc2)n1CCO
3,3.67 µM,O=[N+]([O-])c1cnc(/C=C/c2ccc(/C=N/NC(=S)NCc3ccccc3Cl)cc2)n1CCO
4,2.34 µM,CN(Cc1ccccc1)C(=S)N/N=C/c1ccc(/C=C/c2ncc([N+](=O)[O-])n2CCO)cc1
5,1.57 µM,Cc1ccccc1NC(=S)N/N=C/c1ccc(/C=C/c2ncc([N+](=O)[O-])n2CCO)cc1

# More lines, now with the values behind:
row,SMILES,IC50
1,O=[N+]([O-])c1cnc(/C=C/c2ccc(/C=N/NC(=S)NC3CCCCC3)cc2)n1CCO,1.5 µM
2,O=[N+]([O-])c1cnc(/C=C/c2ccc(/C=N/NC(=S)NC3CCCCCCC3)cc2)n1CCO,0.8 µM
3,O=[N+]([O-])c1cnc(/C=C/c2ccc(/C=N/NC(=S)N3CCC(c4ccccc4)CC3)cc2)n1CCO,1.25 µM
4,O=[N+]([O-])c1cnc(/C=C/c2ccc(/C=N/NC(=S)N3CCCCCC3)cc2)n1CCO,1.62 µM
5,CC1CCN(C(=S)N/N=C/c2ccc(/C=C/c3ncc([N+](=O)[O-])n3CCO)cc2)CC1,1.13 µM
6,O=[N+]([O-])c1cnc(/C=C/c2ccc(/C=N/NC(=S)N3CCCC3)cc2)n1CCO,1.92 µM
